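Tested at 5 concentrations; 48 h exposure; 96-well plates; endpoints linearly interpolated, else capped at highest concentration. At the GI50, growth is halved. Definition used: TGI = concentration required for complete inhibition of growth.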
What was measured:
Assay in all cases: inhibition of tumour cell growth, NCI panel, 48 h
[1] = tested on: SF-539 CNS
[2] = tested on: MDA-MB-435
[3] = tested on: HT29 colon
[4] = tested on: MCF7 breast
[5] = tested on: LOX IMVI melanoma
[6] = tested on: MDA-MB-231 breast
[7] = tested on: SF-268 CNS
[8] = tested on: IGROV1 ovarian
[9] = tested on: 786-0 renal
[10] = tested on: NCI-H226 lung
[11] = tested on: HOP-62 NSCLC
[12] = tested on: NCI-H460 lung
[13] = tested on: ACHN renal
[14] = tested on: SK-OV-3 ovarian
[15] = tested on: K-562 leukemia
[16] = tested on: SK-MEL-2 melanoma
[17] = tested on: RPMI-8226 leukemia
[18] = tested on: OVCAR-8 ovarian
[19] = tested on: SW-620 colon
[20] = tested on: HL-60(TB) leukemia
[21] = tested on: SR leukemia
[22] = tested on: KM12 colon
[23] = tested on: RXF 393 renal
[24] = tested on: HCT-15 colon
[25] = tested on: TK-10 renal
[26] = tested on: UACC-62 melanoma
[27] = tested on: SNB-75 CNS
[28] = tested on: T-47D breast
[29] = tested on: OVCAR-5 ovarian
[30] = tested on: PC-3 prostate
[31] = tested on: OVCAR-4 ovarian
[32] = tested on: HOP-92 NSCLC
[33] = tested on: CCRF-CEM leukemia
[34] = tested on: SN12C renal
[35] = tested on: M14 melanoma
[36] = tested on: UACC-257 melanoma
[37] = tested on: UO-31 renal
[38] = tested on: MALME-3M melanoma
[39] = tested on: CAKI-1 renal
[40] = tested on: A549 NSCLC
[41] = tested on: DU-145 prostate
[42] = tested on: NCI-H23 lung
[43] = tested on: BT-549 breast
[44] = tested on: SK-MEL-5 melanoma
[45] = tested on: EKVX NSCLC
[46] = tested on: NCI-H522 lung
[47] = tested on: MOLT-4 leukemia
[48] = tested on: U251 CNS
[49] = tested on: SF-295 CNS
[50] = tested on: OVCAR-3 ovarian
[51] = tested on: HCT-116 colon
[52] = tested on: HCC-2998 colon
[53] = tested on: HS 578T breast
[54] = tested on: SNB-19 CNS
[55] = tested on: SK-MEL-28 melanoma
[56] = tested on: COLO 205 colon
[57] = tested on: NCI/ADR-RES ovarian

COc1cc(CCC(=O)NC[C@@H](O)c2ccccc2)ccc1O
GI50 [1]: > 100 µM | TGI [1]: > 100 µM | GI50 [2]: > 100 µM | TGI [2]: > 100 µM | GI50 [3]: > 100 µM | TGI [3]: > 100 µM | GI50 [4]: > 100 µM | TGI [4]: > 100 µM | GI50 [5]: > 100 µM | TGI [5]: > 100 µM | GI50 [6]: > 100 µM | TGI [6]: > 100 µM | GI50 [7]: > 100 µM | TGI [7]: > 100 µM | GI50 [8]: > 100 µM | TGI [8]: > 100 µM | GI50 [9]: > 100 µM | TGI [9]: > 100 µM | GI50 [10]: > 100 µM | TGI [10]: > 100 µM | GI50 [11]: > 100 µM | TGI [11]: > 100 µM | GI50 [12]: > 100 µM | TGI [12]: > 100 µM | GI50 [13]: > 100 µM | TGI [13]: > 100 µM | GI50 [14]: > 100 µM | TGI [14]: > 100 µM | GI50 [15]: 56.8 µM | TGI [15]: > 100 µM | GI50 [16]: > 100 µM | TGI [16]: > 100 µM | GI50 [17]: > 100 µM | TGI [17]: > 100 µM | GI50 [18]: > 100 µM | TGI [18]: > 100 µM | GI50 [19]: > 100 µM | TGI [19]: > 100 µM | GI50 [20]: > 100 µM | TGI [20]: > 100 µM | GI50 [21]: 61.6 µM | TGI [21]: > 100 µM | GI50 [22]: > 100 µM | TGI [22]: > 100 µM | GI50 [23]: > 100 µM | TGI [23]: > 100 µM | GI50 [24]: > 100 µM | TGI [24]: > 100 µM | GI50 [25]: > 100 µM | TGI [25]: > 100 µM | GI50 [26]: > 100 µM | TGI [26]: > 100 µM | GI50 [27]: > 100 µM | TGI [27]: > 100 µM | GI50 [28]: > 100 µM | TGI [28]: > 100 µM | GI50 [29]: > 100 µM | TGI [29]: > 100 µM | GI50 [30]: > 100 µM | TGI [30]: > 100 µM | GI50 [31]: > 100 µM | TGI [31]: > 100 µM | GI50 [32]: > 100 µM | TGI [32]: > 100 µM | GI50 [33]: > 100 µM | TGI [33]: > 100 µM | GI50 [34]: > 100 µM | TGI [34]: > 100 µM | GI50 [35]: > 100 µM | TGI [35]: > 100 µM | GI50 [36]: > 100 µM | TGI [36]: > 100 µM | GI50 [37]: > 100 µM | TGI [37]: > 100 µM | GI50 [38]: > 100 µM | TGI [38]: > 100 µM | GI50 [39]: > 100 µM | TGI [39]: > 100 µM | GI50 [40]: > 100 µM | TGI [40]: > 100 µM | GI50 [41]: > 100 µM | TGI [41]: > 100 µM | GI50 [42]: > 100 µM | TGI [42]: > 100 µM | GI50 [43]: > 100 µM | TGI [43]: > 100 µM | GI50 [44]: > 100 µM | TGI [44]: > 100 µM | GI50 [45]: > 100 µM | TGI [45]: > 100 µM | GI50 [46]: > 100 µM | TGI [46]: > 100 µM | GI50 [47]: > 100 µM | TGI [47]: > 100 µM | GI50 [48]: > 100 µM | TGI [48]: > 100 µM | GI50 [49]: > 100 µM | TGI [49]: > 100 µM | GI50 [50]: > 100 µM | TGI [50]: > 100 µM | GI50 [51]: > 100 µM | TGI [51]: > 100 µM

CC1=CC(=O)N(n2c(-c3ccccc3)n[nH]c2=O)C1=O
TGI [52]: > 100 µM | TGI [1]: > 100 µM | TGI [2]: > 100 µM | TGI [53]: > 100 µM | TGI [3]: > 100 µM | TGI [4]: > 100 µM | TGI [5]: > 100 µM | TGI [6]: > 100 µM | TGI [7]: > 100 µM | TGI [8]: > 100 µM | TGI [9]: > 100 µM | TGI [10]: > 100 µM | TGI [11]: > 100 µM | TGI [12]: > 100 µM | TGI [13]: > 100 µM | TGI [14]: > 100 µM | TGI [15]: > 100 µM | TGI [54]: > 100 µM | TGI [55]: > 100 µM | TGI [16]: > 100 µM | TGI [56]: > 100 µM | TGI [17]: > 100 µM | TGI [18]: > 100 µM | TGI [19]: > 100 µM | TGI [20]: > 100 µM | TGI [22]: > 100 µM | TGI [23]: > 100 µM | TGI [24]: > 100 µM | TGI [25]: > 100 µM | TGI [26]: > 100 µM | TGI [27]: > 100 µM | TGI [28]: > 100 µM | TGI [29]: > 100 µM | TGI [30]: > 100 µM | TGI [31]: > 100 µM | TGI [33]: > 100 µM | TGI [34]: > 100 µM | TGI [35]: > 100 µM | TGI [36]: > 100 µM | TGI [37]: > 100 µM | TGI [38]: > 100 µM | TGI [39]: > 100 µM | TGI [40]: > 100 µM | TGI [41]: > 100 µM | TGI [42]: > 100 µM | TGI [43]: > 100 µM | TGI [44]: > 100 µM | TGI [45]: > 100 µM | TGI [46]: > 100 µM | TGI [47]: > 100 µM | TGI [48]: > 100 µM | TGI [49]: > 100 µM | TGI [50]: > 100 µM | TGI [51]: > 100 µM | TGI [57]: > 100 µM

— PubChem BioAssay (NCI)
